This note sets out measurements from a melting point compilation (Tetko et al.; mined from patent text by program, amines drawn as free bases though some values may be those of a salt).

Take `COc1ccc(OC)c(S(=O)(=O)NC(=O)C(C)Oc2cc(-n3nc(C)n(C(F)F)c3=O)c(F)cc2Cl)c1` (stereo not drawn): the melting point is 168 to 172 °C.

The molecule `CCOC(=O)C(=NO)c1cccnc1` showed a melting point of 137 to 138 °C.

In turn, `CC(C)(C)c1cc(SC2CC(=O)N(c3ccccc3N3C(=O)CC(Sc4cc(C(C)(C)C)c(O)c(C(C)(C)C)c4)C3=O)C2=O)cc(C(C)(C)C)c1O` (stereo not drawn) yielded a melting point of 128 to 133 °C.

As to `CC(C)(C)OC(=O)N1CCN(Cc2ccccc2)C(=S)C1`, the melting point lay within 126 to 129 °C.

Regarding `Nc1c2c(nc3cccc(F)c13)C1CCC2C1` (stereo not drawn), the melting point turned out to be 173 °C.

Consider `O=C1NCC(=O)c2[nH]cnc2N1`, for which the melting point is > 300 °C.

`CC(=O)C(=Cc1ccccc1[N+](=O)[O-])C(=O)OCCCl` registered a melting point of 82 to 84 °C.

`Cc1cc(Oc2ccc(Cl)c(Cl)c2)ccc1S(C)(=O)=O` returned a melting point of 154 to 156 °C.

In the case of `CSc1cnn(-c2c(Cl)cc(C(F)(F)F)cc2Cl)c1N`, the melting point fell in the range of 106 to 108 °C.

On to `c1ccc2[nH]c3c4ccccc4nc-3cc2c1`, for which the melting point lay in the range of 249 to 251 °C.

With `O=C(CN1CCOCC1)Nc1nc2c(Oc3cc(-c4ccc(C(F)(F)F)cc4)ncn3)cccc2s1`, the melting point was in the range of 178 to 182 °C.

With `COC(=O)COCc1c(OC)ccc(OC)c1C=O`, the melting point lay within 177 to 179 °C.

With `CN(C)c1ccc(NC(=O)N(C[C@@H]2CCCC[C@H]2CN(C(=O)Nc2ccc(N(C)C)cc2)C2CCCCC2)C2CCCCC2)cc1` (relative stereo), the melting point is 108 to 114 °C.

In the case of `CNC(=O)Oc1ccccc1C(=O)NC(Oc1ccccc1)C(Cl)(Cl)Cl` (stereo not drawn), the melting point was 138 to 141 °C.

On to `COc1ccc2[nH]cc(CC(=O)N3CCN(c4ccc(N)cc4)CC3)c2c1`, for which the melting point was 119 to 120 °C.

Molecule `Cc1nc(NC(=O)c2ccccc2)cn1CCCCC1(C(=O)NCC(F)(F)F)c2ccccc2-c2ccccc21` had a melting point of 145 to 147 °C.

With `CS(=O)(=O)N1CCCCc2nc(-c3ccncc3)sc21`, the melting point lay in the range of 193 to 194 °C.

For the molecule `COc1cc(C)nc(Nc2ccccc2)n1`, the melting point is 75 to 76 °C.

On to `ON=C1C2CCN(CC2)C1CN1CCCC1` (stereo not drawn), for which the melting point fell in the range of 194 to 195 °C.

Molecule `[N-]=[N+]=NCCCn1cnc(-c2ccc(F)cc2)c1-c1ccncc1` showed a melting point of 64 to 65 °C.

For the molecule `Cc1ccc(Sc2nc(Cl)cc(OCCC(C)C)n2)cc1`, the melting point lay within 83 to 86 °C.

In the case of `Cc1ccc(C2=C(c3ccc(S(C)(=O)=O)cc3)CN(C)C2=O)c(C)c1`, the melting point is 59 to 61 °C.

For `CCCCCCCCCCCCCCCCCCNC(=O)OCC(CNS(=O)(=O)CCCCl)NC(=O)OC` (stereo not drawn), the melting point was in the range of 99 to 101 °C.

In turn, `O=C1CCC(c2ccc3[nH]c(-c4ccc(-n5ccnc5)cc4)cc3c2)=NN1` yielded a melting point of 295 to 298 °C.

`CC(C)(C)C1CCc2oc(=O)c(-c3ccccc3)c(O)c2C1` (stereo not drawn) registered a melting point of 195 °C.

As to `O=c1cnc2c([nH]1)-c1ccccc1C2=NO`, the melting point is > 300 °C.

`CCOP(=O)(OCC)OC(=Cc1nccn1C)C(F)(F)F` showed a melting point of 54 to 64 °C.

`COc1ccc(Cl)cc1C(=O)CCC(=O)O` showed a melting point of 113 to 115 °C.

The molecule `NCCC(Nc1ccccc1)c1ccccc1` (stereo not drawn) displayed a melting point of 104 to 105 °C.

Molecule `N#CCn1nnnc1S` showed a melting point of 116 to 118 °C.

For `COC(=O)[C@@H](C)N[C@@H](CC(C)(C)C)C(=O)O`, the melting point fell in the range of 120 to 124 °C.

`Cc1ccnc(NC(=O)c2c(-c3ccc(F)cc3)c(-c3ccc(F)cc3)cn2C(C)C)n1` yielded a melting point of 165 to 166 °C.

In turn, `CCC(CC)C(=O)Nc1ccc2ncnc(NC=C(C(=O)OC)C(=O)OC)c2c1` showed a melting point of 221 to 225 °C.

For the molecule `CCC(C(=O)O)C1=NC(c2ccccc2)(c2ccccc2)CO1` (stereo not drawn), the melting point was in the range of 125 to 126 °C.

`COc1ccc2oc(=O)cc(Oc3c(Cl)cccc3Cl)c2c1`: the melting point was in the range of 170 to 171 °C.

In turn, `O=C(CC(=O)C1CC1)c1ccc(S(F)(F)(F)(F)F)cc1` had a melting point of 70 to 72 °C.

The molecule `CCN(Cc1cc(Br)ccc1OCC1CC1)c1ccc(C(=O)O)nn1` displayed a melting point of 73 to 80 °C.

For `COC(=O)c1ccc(-c2coc(-c3ccc4c(c3)C(C)(C)CCC4(C)C)c2)cc1`, the melting point lay within 109 to 111 °C.

With `CCOC(=O)c1oc2ccc(OC)cc2c1OCC`, the melting point lay in the range of 50 to 51 °C.

Consider `Cc1ccc(-c2ccc(C(=O)Nc3ccc4cc(CN5CCCC5)cnc4c3F)cc2)cc1`, for which the melting point was in the range of 210 to 213 °C.

Regarding `CSc1ccc(-c2nn(Cc3cccnc3)c(=O)cc2-c2ccc(Cl)cc2)cc1`, the melting point was determined as 148 °C.

Molecule `CC(C)(Oc1cccc(C(=O)c2ccc(C(F)(F)F)cc2)c1)C(=O)O` showed a melting point of 133 °C.

`CCOC(=O)C1=C(C)NC(CN2C(=O)c3ccccc3C2=O)=C(C(=O)OCC)C1c1cccc(Cl)c1` (stereo not drawn) returned a melting point of 135 to 136 °C.

Take `COC1C=C(C)C(=O)CC(C)(C)C1OC(=O)c1ccc([N+](=O)[O-])cc1` (stereo not drawn): the melting point was 122 to 123 °C.

As for `Cc1c2c(nc3c(C(F)(F)F)cccc13)CCCNC2`, the melting point is 78 °C.

For the molecule `CN1CCN(c2ccc(N)cc2C#N)CC1`, the melting point is 45 to 46 °C.

On to `CCCCOc1nc(N)c2[nH]c(=O)n(CCCCN(CC(C)(C)CN(C)C)S(=O)(=O)c3cccc(CC(=O)O)c3)c2n1`, for which the melting point lay within 175 to 176 °C.

With `Cc1ccc2ncc(Oc3c(Cl)cc(NS(=O)(=O)c4cc(C)c(Cl)cc4Cl)cc3Cl)cc2c1`, the melting point was in the range of 228 to 230 °C.

Regarding `CCCCCCCCCCCCCCCCCCOc1cc(OCCOc2ccc3ccccc3c2)cc(C(=O)OCc2ccccc2)c1`, the melting point was in the range of 62 to 65 °C.

Turning to `CN(C)C(=O)CCN1CCC(C(O)(c2ccc(F)cc2)c2ccc(F)cc2)CC1`, the melting point was in the range of 134 to 135 °C.

`COC(=O)CCc1ccc(NC(=O)C(Cn2ccnc2)NS(=O)(=O)c2ccc(Cl)cc2)cc1` (racemic) displayed a melting point of 79 to 82 °C.

`Nc1ccc(Cl)c(C(=O)c2sc(Nc3ccc4nc[nH]c4c3)nc2N)c1Cl` displayed a melting point of 235 to 237 °C.

Turning to `Cc1n[nH]c(C)c1CC1CC2c3cccc4[nH]cc(c34)CC2N(C)C1` (stereo not drawn), the melting point is > 300 °C.

The molecule `OC(c1ccnc2cc(Cl)ccc12)C(F)(F)F` (stereo not drawn) gave a melting point of 161 °C.

Regarding `COc1ccc(S(=O)(=O)N2Cc3ccccc3N(C(=O)c3cccc(C(F)(F)F)c3)CC2C(=O)NO)cc1` (stereo not drawn), the melting point fell in the range of 128 to 130 °C.

`Oc1ccc(C2OCN3C2=CCC3CCc2ccccc2)cc1` (stereo not drawn) came in with a melting point of 176 °C.

Molecule `CC1C=NNc2c(-c3ccc(F)cc3)c(-c3ccncc3)nn21` (stereo not drawn) gave a melting point of 204 °C.

Molecule `CC(C)(C#N)c1cc(C(C)(C)C#N)cc(C(C)(C)n2cncn2)c1` came in with a melting point of 185 to 188 °C.

In the case of `COc1ccc2c(c1)CCN(C=O)C2c1cc(Cl)nc(Cl)c1` (single isomer, unassigned; (-)), the melting point lay in the range of 156 to 158 °C.

Molecule `CNc1nc2ccncc2[nH]1` displayed a melting point of 256 °C.

`CC(C(=O)O)c1ccc2c(c1)C(=O)Cc1ccccc1S2` (stereo not drawn) displayed a melting point of 130 to 132 °C.

Turning to `O=C(O)[C@@H]1OC(c2ccccc2)=N[C@H]1c1ccccc1`, the melting point is 135 °C.

In turn, `CC1CN(CC(=O)c2ccccc2)c2nc(-c3ccncc3)cc(=O)n2C1` (stereo not drawn) came in with a melting point of 202 to 203 °C.

For `CC(=O)NCC1CC(c2cc(F)c(N3CCN(C(=O)C4COc5ccccc5O4)CC3)c(F)c2)=NO1` (single isomer, unassigned; (-)), the melting point was in the range of 158 to 159 °C.

Consider `Cc1ccncc1-c1nc(-c2ccc(Cl)cc2)c(Cl)s1`, for which the melting point is 146 °C.

The molecule `CCCCCCCCNC(=O)c1ccc(O)c(O)c1` came in with a melting point of 118 to 120 °C.

For the molecule `CC(C)(C(N)=O)c1ccc2nc(-c3ccncc3)[nH]c2c1`, the melting point was in the range of 274 to 276 °C.

Consider `CCC1(CCO)OCCc2c1[nH]c1c(C)cccc21` (stereo not drawn), for which the melting point was determined as 68 °C.

The molecule `COCCOc1ccnc(NCc2ccccc2)c1[N+](=O)[O-]` gave a melting point of 81 to 83 °C.

In turn, `CSCc1cc(=O)c2ccccc2o1` gave a melting point of 77 to 79 °C.

The molecule `CCn1c([N+](=O)[O-])cnc1-c1nnc2ccc(Cl)nn12` registered a melting point of 164 to 166 °C.

With `CC#CCOc1ccc(S(=O)C(C(=O)NO)c2ccccc2)cc1` (stereo not drawn), the melting point turned out to be 55 °C.

`CC(=O)Nc1nccc2cc3cccnc3n12` gave a melting point of 160 to 161 °C.

With `Clc1ncn(COc2ccc(Oc3ccccc3)cc2)c1Cl`, the melting point fell in the range of 82 to 83 °C.

The molecule `Nc1c(Cl)cc(C(O)CNCCCCCCOCCCc2ccc(CO)cc2)cc1Cl` (stereo not drawn) gave a melting point of 56 to 59 °C.

`Cc1cc(N2CC=C(C(N)=O)CC2)c2c(C)c(C)n(-c3ccc(Cl)cc3Cl)c2n1` returned a melting point of 265 to 267 °C.

As to `OC(CCCl)COc1ccc(Cl)c(Cl)c1` (stereo not drawn), the melting point lay within 82 to 84 °C.

As for `CCC=CCn1c(=O)sc2c(=O)[nH]c(N)nc21`, the melting point was in the range of 240 to 243 °C.

On to `CC1(C)CC(n2cc(C#N)c3ccccc32)c2cc(C#N)ccc2O1` (stereo not drawn), for which the melting point lay within 175 to 178 °C.

On to `CCC=C(c1ccccc1N1CCCC(C)(C)C1)C(C(N)=O)c1ccc(C(=O)OCC)cc1` (stereo not drawn), for which the melting point was in the range of 113 to 116 °C.

As to `CCOC(=O)C1=CC(=O)CCC1S(=O)(=O)Nc1ccc(F)cc1Cl` (stereo not drawn), the melting point fell in the range of 128 to 130 °C.

Take `COc1ccc(CNc2cc(F)cc(C#N)c2)cc1`: the melting point was in the range of 93 to 94 °C.

With `Cc1ccc(C(=O)NC(NC(=S)Nc2ccccc2F)C(F)(F)F)cc1` (stereo not drawn), the melting point was in the range of 197 to 198 °C.

`C[C@H]1Cn2c(=O)[nH]c3c(Br)ccc(c32)CN1C(=O)OC(C)(C)C` came in with a melting point of 229 °C.

`COC(=O)NC1=NC(c2ccc(F)cc2)CCN1` (stereo not drawn) had a melting point of 211 to 212 °C.

Take `CCOc1ccccc1C(O)c1cc(Cl)ccc1N` (stereo not drawn): the melting point lay within 80 to 81 °C.

In turn, `c1ccc(-c2ccc(-n3c4ccccc4c4c3ccc3c5ccccc5n(-c5ccc(-c6ccccc6)cc5)c34)cc2)cc1` displayed a melting point of 315 °C.

As for `O=C(O)c1sc2cc(OCc3cccnc3)ccc2c1Sc1ccccc1`, the melting point is 236 to 238 °C.
